Source: BindingDB's records for doi:10.1021/jm100555f (Harvard Medical School, 2010)

Test: Inhibition of Bcr-Abl in mouse BA/F3 cells

SMILES | EC50
Cc1nc(C)c(Cn2ncc3c(Nc4ccc(OC(F)(F)F)cc4)ncnc32)s1 [1-((2,4-dimethylthiazol-5-yl)methyl)-N-(4-(trifluoromethoxy)phenyl)-1H-pyrazolo[3,4-d]pyrimidin-4-amine] | 6920 nM
FC(F)(F)Oc1ccc(Nc2ncnc3c2cnn3CC2CCOC2)cc1 (centres undefined) [1-((tetrahydrofuran-3-yl)methyl)-N-(4-(trifluoromethoxy)phenyl)-1H-pyrazolo[3,4-d]pyrimidin-4-amine] | 690 nM
FC(F)(F)Oc1ccc(Nc2ncnc3c2cnn3Cc2cccnc2)cc1 [1-(pyridin-3-ylmethyl)-N-(4-(trifluoromethoxy)phenyl)-1H-pyrazolo[3,4-d]pyrimidin-4-amine] | 7150 nM
FC(F)(F)Oc1ccc(Nc2ncnc3c2cnn3Cc2ccccc2)cc1 [1-benzyl-N-(4-(trifluoromethoxy)phenyl)-1H-pyrazolo[3,4-d]pyrimidin-4-amine] | 400 nM
FC(F)(F)Oc1ccc(Nc2ncnc3c2cnn3C2CCCCC2)cc1 [1-cyclohexyl-N-(4-(trifluoromethoxy)phenyl)-1H-pyrazolo[3,4-d]pyrimidin-4-amine] | 400 nM
CCn1ncc2c(Nc3ccc(OC(F)(F)F)cc3)ncnc21 [1-ethyl-N-(4-(trifluoromethoxy)phenyl)-1H-pyrazolo[3,4-d]pyrimidin-4-amine] | 300 nM
CCCn1ncc2c(Nc3ccc(OC(F)(F)F)cc3)ncnc21 [1-propyl-N-(4-(trifluoromethoxy)phenyl)-1H-pyrazolo[3,4-d]pyrimidin-4-amine] | 270 nM
CC(C)(C)n1ncc2c(Nc3ccc(OC(F)(F)F)cc3)ncnc21 [1-tert-butyl-N-(4-(trifluoromethoxy)phenyl)-1H-pyrazolo[3,4-d]pyrimidin-4-amine] | 160 nM
OCCn1ncc2c(Nc3ccc(OC(F)(F)F)cc3)ncnc21 [2-(4-(4-(Trifluoromethoxy)phenylamino)-1H-pyrazolo-[3,4-d]pyrimidin-1-yl)ethanol] | 250 nM
OCCn1cc2c(Nc3ccc(OC(F)(F)F)cc3)ncnc2n1 [2-(4-(4-(Trifluoromethoxy)phenylamino)-2H-pyrazolo[3,4-d]pyrimidin-2-yl)ethanol] | 1320 nM
NC(=O)Cn1ncc2c(Nc3ccc(OC(F)(F)F)cc3)ncnc21 [2-(4-(4-(trifluoromethoxy)phenylamino)-1H-pyrazolo[3,4-d]pyrimidin-1-yl)acetamide] | 350 nM
NC(=O)Cn1cc2c(Nc3ccc(OC(F)(F)F)cc3)ncnc2n1 [2-(4-(4-(trifluoromethoxy)phenylamino)-2H-pyrazolo[3,4-d]pyrimidin-2-yl)acetamide] | 4340 nM
NC(=O)c1ccccc1-c1cc(Nc2ccc(OC(F)(F)F)cc2)ncn1 [2-(6-(4-(trifluoromethoxy)phenylamino)pyrimidin-4-yl)benzamide] | > 10000 nM
FC(F)(F)Oc1ccc(Nc2ncnc3nn(Cc4cccnc4)cc23)cc1 [2-(pyridin-3-ylmethyl)-N-(4-(trifluoromethoxy)phenyl)-2H-pyrazolo[3,4-d]pyrimidin-4-amine] | 1700 nM
FC(F)(F)Oc1ccc(Nc2ncnc3nn(Cc4ccccc4)cc23)cc1 [2-benzyl-N-(4-(trifluoromethoxy)phenyl)-2H-pyrazolo[3,4-d]pyrimidin-4-amine] | > 10000 nM
FC(F)(F)Oc1ccc(Nc2ncnc3nn(C4CCCCC4)cc23)cc1 [2-cyclohexyl-N-(4-(trifluoromethoxy)phenyl)-2H-pyrazolo[3,4-d]pyrimidin-4-amine] | 2200 nM
CCn1cc2c(Nc3ccc(OC(F)(F)F)cc3)ncnc2n1 [2-ethyl-N-(4-(trifluoromethoxy)phenyl)-2H-pyrazolo[3,4-d]pyrimidin-4-amine] | 1200 nM
CCCn1cc2c(Nc3ccc(OC(F)(F)F)cc3)ncnc2n1 [2-propyl-N-(4-(trifluoromethoxy)phenyl)-2H-pyrazolo[3,4-d]pyrimidin-4-amine] | 160 nM
NC(=O)CCn1ccc2c(Nc3ccc(OC(F)(F)F)cc3)ncnc21 [3-(4-(4-(trifluoromethoxy)phenylamino)-7H-pyrrolo[2,3-d]pyrimidin-7-yl)propanamide] | 490 nM
